Type in all cases: ADME, organism-based
Series [1] in a line: Plasma concentration in lung transplant recipient at 6 mg/kg, iv twice a day administered immediately post transplant as 2 hr infusion followed by 200 mg, po bid for 3 months by HPLC analysis. To be noted: human. Also on record: dose 6 mg/kg, route oral.
A short description of series [2]: Cmax in lung transplant recipient at 6 mg/kg, iv twice a day administered immediately post transplant as 2 hr infusion followed by 200 mg, po bid for 3 months by HPLC analysis. The arrangement: dose 6 mg/kg, route oral. To be noted: human, in vivo.
A short description of series [3]: Cmax in lung transplant recipient at 6 mg/kg, iv twice a day administered immediately post transplant as 2 hr infusion. The note with it: human, in vivo. Also on record: dose 6 mg/kg, route intravenous.
The nature of series [4]: Tmax in lung transplant recipient at 6 mg/kg, iv twice a day administered immediately post transplant as 2 hr infusion followed by 200 mg, po bid for 3 months by HPLC analysis. The arrangement: dose 6 mg/kg, route oral. The note with it: human, in vivo.

Compound `C[C@@H](c1ncncc1F)[C@](O)(Cn1cncn1)c1ccc(F)cc1F` [VORICONAZOLE] showed a concentration at 2 h in series [1] of 1000 ng/mL. The Cmax (as a rule, the highest concentration seen after dosing) in series [2] came to 5900 ng/mL; in series [3], 3600 ng/mL. Also, the Tmax (as a rule, the time at which the peak concentration occurs) in series [4] turned out to be 1.9 h.
